We go through 31 molecules from patent US11337976B2 (Plexxikon Inc., priority 2011, dated 2022).

The subject of this assay is A375 melanoma cells (B-Raf V600E mutation). Kind of assay: A375 (A375_P-ERK) cell activity / cell growth inhibition assay. The assay is classed as cell-based, human. Conditions: Homo sapiens, A-375; A375 cells (text: A375_P-ERK).
In general, IC50 refers to the concentration needed to halve the response being measured. A high value points to weaker potency in that assay. Take `O=C(c1cccc(NS(=O)(=O)N2CCCC2)c1F)c1c[nH]c2ncc(C3CC3)cc12` [P-0274, N-[3-(5-cyclopropyl-1H-pyrrolo[2,3-b]pyridine-3-carbonyl)-2-fluoro-phenyl]pyrrolidine-1-sulfonamide]: the IC50 was below 1 µM. Molecule `CCN(C)S(=O)(=O)Nc1ccc(F)c(C(=O)c2c[nH]c3ncc(-c4cnc(N5CCC(O)CC5)nc4)cc23)c1F` [P-0275] had a 50% inhibitory concentration (IC50) below 1 µM. Molecule `CCN(C)S(=O)(=O)Nc1ccc(F)c(C(=O)c2c[nH]c3ncc(-c4cccc(C5(C#N)CC5)c4)cc23)c1F` [P-0276, 5-[3-(1-cyanocyclopropyl)phenyl]-3-[3-[[ethyl(methyl)sulfamoyl]amino]-2,6-difluoro-benzoyl]-1H-pyrrolo[2,3-b]pyridine] showed an IC50 below 1 µM. To `CCN(C)S(=O)(=O)Nc1ccc(F)c(C(=O)c2c[nH]c3ncc(-c4cnc(N5CCC5)nc4)cc23)c1F` [P-0277, 5-[2-(azetidin-1-yl)pyrimidin-5-yl]-3-[3-[[ethyl(methyl)sulfamoyl]amino]-2,6-difluoro-benzoyl]-1H-pyrrolo[2,3-b]pyridine] belongs below 1 µM; to `Nc1ncc(-c2cnc3[nH]cc(C(=O)c4c(F)ccc(NS(=O)(=O)N5CCCC5)c4F)c3c2)cn1` [P-0279, N-[3-[5-(2-aminopyrimidin-5-yl)-1H-pyrrolo[2,3-b]pyridine-3-carbonyl]-2,4-difluoro-phenyl]pyrrolidine-1-sulfonamide], above 1 µM; to `Nc1nccc(-c2cnc3[nH]cc(C(=O)c4c(F)ccc(NS(=O)(=O)N5CCCC5)c4F)c3c2)n1` [P-0280, N-[3-[5-(2-aminopyrimidin-4-yl)-1H-pyrrolo[2,3-b]pyridine-3-carbonyl]-2,4-difluoro-phenyl]pyrrolidine-1-sulfonamide], below 1 µM.

For `O=C(c1cccc(NS(=O)(=O)N2CCCC2)c1F)c1c[nH]c2ncc(-c3ccncc3)cc12` [P-0281, N-[2-fluoro-3-[5-(4-pyridyl)-1H-pyrrolo[2,3-b]pyridine-3-carbonyl]phenyl]pyrrolidine-1-sulfonamide], the half-maximal inhibitory concentration (IC50) was below 1 µM. For the molecule `O=C(c1c(F)ccc(NS(=O)(=O)N2CCCC2)c1F)c1c[nH]c2ncc(-c3ccnc(N4CCOCC4)n3)cc12` [P-0282, N-[2,4-difluoro-3-[5-(2-morpholinopyrimidin-4-yl)-1H-pyrrolo[2,3-b]pyridine-3-carbonyl]phenyl]pyrrolidine-1-sulfonamide], the 50% inhibitory concentration (IC50) is below 1 µM. The molecule `CCN(C)S(=O)(=O)Nc1ccc(F)c(C(=O)c2c[nH]c3ncc(-c4ccnc(F)c4)cc23)c1F` [P-0283, 3-[3-[[ethyl(methyl)sulfamoyl]amino]-2,6-difluoro-benzoyl]-5-(2-fluoro-4-pyridyl)-1H-pyrrolo[2,3-b]pyridine] displayed a concentration for half-maximal inhibition (IC50) above 1 µM.

In the case of `O=C(c1c(F)ccc(NS(=O)(=O)N2CCCC2)c1F)c1c[nH]c2ncc(-c3ccnc(N4CCOCC4)c3)cc12` [P-0284, N-[2,4-difluoro-3-[5-(2-morpholino-4-pyridyl)-1H-pyrrolo[2,3-b]pyridine-3-carbonyl]phenyl]pyrrolidine-1-sulfonamide], the IC50 is below 1 µM. The value for `CN1CCN(c2cc(-c3cnc4[nH]cc(C(=O)c5c(F)ccc(NS(=O)(=O)N6CCCC6)c5F)c4c3)ccn2)CC1` [P-0285, N-[2,4-difluoro-3-[5-[2-(4-methylpiperazin-1-yl)-4-pyridyl]-1H-pyrrolo[2,3-b]pyridine-3-carbonyl]phenyl]pyrrolidine-1-sulfonamide] was below 1 µM. The molecule `COc1cc(-c2cnc3[nH]cc(C(=O)c4c(F)ccc(NS(=O)(=O)N5CCCC5)c4F)c3c2)ccn1` [P-0287, N-[2,4-difluoro-3-[5-(2-methoxy-4-pyridyl)-1H-pyrrolo[2,3-b]pyridine-3-carbonyl]phenyl]pyrrolidine-1-sulfonamide] displayed a half-maximal inhibitory concentration (IC50) below 1 µM. `O=C(c1c(F)ccc(NS(=O)(=O)N2CC[C@H](F)C2)c1F)c1c[nH]c2ncc(-c3cnc(C4CC4)nc3)cc12` [P-0289, (3S)—N-[3-[5-(2-cyclopropylpyrimidin-5-yl)-1H-pyrrolo[2,3-b]pyridine-3-carbonyl]-2,4-difluoro-phenyl]-3-fluoro-pyrrolidine-1-sulfonamide] came in with a 50% inhibitory concentration (IC50) below 1 µM. Regarding `CCN(C)S(=O)(=O)Nc1ccc(F)c(C(=O)c2c[nH]c3ncc(-c4cnc(N(C)C)nc4)cc23)c1F` [P-0292, 5-[2-(dimethylamino)pyrimidin-5-yl]-3-[3-[[ethyl(methyl)sulfamoyl]amino]-2,6-difluoro-benzoyl]-1H-pyrrolo[2,3-b]pyridine], the IC50 is below 1 µM.

Take `CCN(C)S(=O)(=O)Nc1ccc(F)c(C(=O)c2c[nH]c3ncc(-c4cnc(N5CCCC5)nc4)cc23)c1F` [P-0293, 3-[3-[[ethyl(methyl)sulfamoyl]amino]-2,6-difluoro-benzoyl]-5-(2-pyrrolidin-1-ylpyrimidin-5-yl)-1H-pyrrolo[2,3-b]pyridine]: the IC50 is below 1 µM.

In the case of `O=C(c1c(F)ccc(NS(=O)(=O)N2CCCC2)c1F)c1c[nH]c2ncc(-c3ccnc(C4CC4)c3)cc12` [P-0295, N-[3-[5-(2-cyclopropyl-4-pyridyl)-1H-pyrrolo[2,3-b]pyridine-3-carbonyl]-2,4-difluoro-phenyl]pyrrolidine-1-sulfonamide], the IC50 was below 1 µM. For the molecule `CCN(C)S(=O)(=O)Nc1cccc(C(=O)c2c[nH]c3ncc(C4CCC4)cc23)c1F` [P-0297, 5-cyclobutyl-3-[3-[[ethyl(methyl)sulfamoyl]amino]-2-fluoro-benzoyl]-1H-pyrrolo[2,3-b]pyridine], the concentration for half-maximal inhibition (IC50) is above 1 µM. With `CCN(C)S(=O)(=O)Nc1cccc(C(=O)c2c[nH]c3ncc(C4CC4)cc23)c1F` [P-0298, 5-cyclopropyl-3-[3-[[ethyl(methyl)sulfamoyl]amino]-2-fluoro-benzoyl]-1H-pyrrolo[2,3-b]pyridine], the IC50 is above 1 µM. With `Nc1cc(-c2cnc3[nH]cc(C(=O)c4cccc(NS(=O)(=O)N5CCCC5)c4F)c3c2)ncn1` [P-0299, N-[3-[5-(6-aminopyrimidin-4-yl)-1H-pyrrolo[2,3-b]pyridine-3-carbonyl]-2-fluoro-phenyl]pyrrolidine-1-sulfonamide], the IC50 was above 1 µM.

For the molecule `CCN(C)S(=O)(=O)Nc1ccc(F)c(C(=O)c2c[nH]c3ncc(-c4ccc(C(F)(F)F)cc4)cc23)c1F` [P-0301, 3-[3-[[ethyl(methyl)sulfamoyl]amino]-2,6-difluoro-benzoyl]-5-[4-(trifluoromethyl)phenyl]-1H-pyrrolo[2,3-b]pyridine], the IC50 was below 1 µM. Take `CCN(C)S(=O)(=O)Nc1ccc(F)c(C(=O)c2c[nH]c3ncc(-c4ccc(N5CCCC5)cc4)cc23)c1F` [P-0303, 3-[3-[[ethyl(methyl)sulfamoyl]amino]-2,6-difluoro-benzoyl]-5-(4-pyrrolidin-1-ylphenyl)-1H-pyrrolo[2,3-b]pyridine]: the IC50 is above 1 µM. The molecule `CCN(C)S(=O)(=O)Nc1ccc(F)c(C(=O)c2c[nH]c3ncc(-c4ccc(-c5nnc(C)o5)cc4)cc23)c1F` [P-0304, 2-[4-[3-[3-[[ethyl(methyl)sulfamoyl]amino]-2,6-difluoro-benzoyl]-1H-pyrrolo[2,3-b]pyridin-5-yl]phenyl]-5-methyl-1,3,4-oxadiazole] registered an IC50 below 1 µM. Molecule `CCN(C)S(=O)(=O)Nc1ccc(F)c(C(=O)c2c[nH]c3ncc(-c4ccc(-c5nnc(NC)s5)cc4)cc23)c1F` [P-0305, 2-[4-[3-[3-[[ethyl(methyl)sulfamoyl]amino]-2,6-difluoro-benzoyl]-1H-pyrrolo[2,3-b]pyridin-5-yl]phenyl]-5-(methylamino)-1,3,4-thiadiazole] gave an IC50 below 1 µM. The value for `CCN(C)S(=O)(=O)Nc1ccc(F)c(C(=O)c2c[nH]c3ncc(-c4cncc(C(C)(C)O)c4)cc23)c1F` [P-0306, 3-[3-[[ethyl(methyl)sulfamoyl]amino]-2,6-difluoro-benzoyl]-5-[5-(1-hydroxy-1-methyl-ethyl)-3-pyridyl]-1H-pyrrolo[2,3-b]pyridine] was above 1 µM. The value for `CCN(C)S(=O)(=O)Nc1ccc(F)c(C(=O)c2c[nH]c3ncc(-c4ccc(C(C)(C)O)nc4)cc23)c1F` [P-0307, 3-[3-[[ethyl(methyl)sulfamoyl]amino]-2,6-difluoro-benzoyl]-5-[6-(1-hydroxy-1-methyl-ethyl)-3-pyridyl]-1H-pyrrolo[2,3-b]pyridine] was below 1 µM. `CCN(CC)c1ccc(-c2cnc3[nH]cc(C(=O)c4c(F)ccc(NS(=O)(=O)N(C)CC)c4F)c3c2)cc1` [P-0308, 5-[4-(diethylamino)phenyl]-3-[3-[[ethyl(methyl)sulfamoyl]amino]-2,6-difluoro-benzoyl]-1H-pyrrolo[2,3-b]pyridine] gave a half-maximal inhibitory concentration (IC50) below 1 µM. To `CCN(C)S(=O)(=O)Nc1ccc(F)c(C(=O)c2c[nH]c3ncc(-c4ccc5c(c4)NC(=O)C5)cc23)c1F` [P-0309, 3-[3-[[ethyl(methyl)sulfamoyl]amino]-2,6-difluoro-benzoyl]-5-(2-oxoindolin-6-yl)-1H-pyrrolo[2,3-b]pyridine] belongs below 1 µM; to `CCN(C)S(=O)(=O)Nc1ccc(F)c(C(=O)c2c[nH]c3ncc(-c4ccc(-c5noc(C)n5)s4)cc23)c1F` [P-0310, 3-[5-[3-[3-[[ethyl(methyl)sulfamoyl]amino]-2,6-difluoro-benzoyl]-1H-pyrrolo[2,3-b]pyridin-5-yl]-2-thienyl]-5-methyl-1,2,4-oxadiazole], below 1 µM. Turning to `CCN(C)S(=O)(=O)Nc1ccc(F)c(C(=O)c2c[nH]c3ncc(-c4ccc5nc(N)ncc5c4)cc23)c1F` [P-0311, 2-amino-6-[3-[3-[[ethyl(methyl)sulfamoyl]amino]-2,6-difluoro-benzoyl]-1H-pyrrolo[2,3-b]pyridin-5-yl]quinazoline], the half-inhibitory concentration (IC50) was below 1 µM. For `CCN(C)S(=O)(=O)Nc1ccc(F)c(C(=O)c2c[nH]c3ncc(-c4ccc5nc(N(C)C)ncc5c4)cc23)c1F` [P-0313, 2-(dimethylamino)-6-[3-[3-[[ethyl(methyl)sulfamoyl]amino]-2,6-difluoro-benzoyl]-1H-pyrrolo[2,3-b]pyridin-5-yl]quinazoline], the IC50 was below 1 µM. For `CCN(C)S(=O)(=O)Nc1ccc(F)c(C(=O)c2c[nH]c3ncc(-c4ccc(C5(O)CC5)cc4)cc23)c1F` [P-0314, 3-[3-[[ethyl(methyl)sulfamoyl]amino]-2,6-difluoro-benzoyl]-5-[4-(1-hydroxycyclopropyl)phenyl]-1H-pyrrolo[2,3-b]pyridine], the half-inhibitory concentration (IC50) was below 1 µM.
